Positions of bridges follow the written chain, without caps; N, C: chain ends. Residues, ends and D or L forms follow the SMILES beside them.
How the values were obtained:
[1] = tested on: LDLr−/− mice; assay: Atherogenesis study, high-cholesterol diet 20 weeks; assay type: in vivo
Method: Atherogenesis study. Eight-week-old male LDL-receptor-deficient (LDLr^−/−) mice (Jackson Laboratories) consuming a high-cholesterol diet (HCD) were treated with intraperitoneal injections of the peptides cM7, scM7 (Peptide Specialty Laboratory) in a dose of 100 μg, or sterile saline three times a week. After 20 weeks blood samples were taken for flow cytometric analysis of leukocyte subpopulations, cholesterol and triglyceride plasma levels, as well as for the determination of plasma cytokines and chemokines. Blood pressure was determined by a non-invasive blood pressure measurement (NIBP, Harvard Apparatus). Mice were euthanized, and aortic roots and arches were frozen in OCT (OCT compound; Tissue-Tek). Thoracic and abdominal aortas were fixed in 10% buffered formalin. Serial cryostat sections (6 μm) of mouse aortic tissues were fixed in acetone, and air-dried. Nonspecific binding was blocked with 5% species-appropriate normal serum (Vector Laboratories). Sections were then incubated with primary antibodies diluted in phosphate-buffered saline, supplemented with 5% species-appropriate normal serum. Incubation with secondary antibodies was followed by avidin-biotin complex (ABC, Vector Laboratories). Antibody binding was visualized with 3-amino-9-ethylcarbazole (AEC; Dako), followed by counterstaining with Gill's hematoxylin solution (Sigma-Aldrich). Control stainings included staining with the respective IgG isotypes (Pharmingen, Dako). Antibodies used were rat anti-mouse Mac-3 for macrophage specific staining, anti α-actin for smooth muscle cell specific staining (Dako). For the visualization of Type I Collagen, Formalin-fixed frozen sections were incubated for 4 hours in a freshly prepared 0.1% solution of picrosirius red (Polysciences) in saturated aqueous picric acid. After rinsing in 0.01 N HCl and distilled water, sections were dehydrated in 70% ethanol and mounted in Permount (Vector Laboratories). Picrosirius red staining was analyzed by polarization microscopy. As the color of collagen fibers assessed in the picrosirius red staining depends on the thickness of collagen fibers and changes from green (thin fibers) to yellow, orange, and red (thick fibers), color distribution in stained collagen sections was quantified. Deposition of lipids was determined by oil red O staining after formalin fixation in aortic sections or in en face preparations of the abdominal aorta. To quantify the composition of the aortic lesions, sections of the aortic tissue were analyzed microscopically in all mice. Within the aortic root, lesion areas were analyzed in cross-sections obtained at the level of all 3 leaflets of the aortic valve, immediately proximal to the right coronary artery ostium. The total aortic wall area, lesion area in the aortic root, and the percentage of area stained for macrophages, lipids, SMCs, or collagen were determined via computer-assisted image quantification (ImagePro, Media Cybernetics).

[2] = tested on: TNFα-challenged mice; details: mouse, in vivo
Method: Mice received an intraperitoneal injection 5 hours before surgery of 200 ng of murine TNFα (R&D systems) and 100 μg of peptides dissolved in sterile saline 5 hours before surgery. Mice were anesthetized with an intraperitoneal injection of ketamine hydrochloride (Essex) and xylazin (Bayer) at a dose at 187.5 mg/kg of body weight and 62.5 mg/kg of body weight, respectively. The cremaster muscle was exteriorized as described previously (Iezzi et al., PNAS (2009), pp 876-881). For some experiments a catheter was placed in the jugular vein and peptides were administered during microscopy. The cremaster was superfused with thermo-controlled (36° C.) saline. Mice were placed on a heating pad to maintain body temperature. Videos were taken with an intravital microscope (AxioScope Vario, Carl Zeiss) fitted with a saline immersion objective (WPlan-APOCHROMAT 20x/1,0DIC IR, Carl Zeiss) a high sensitivity camera system (AxioCam MRm, Carl Zeiss) for 30 seconds each. Rolling leukocyte flux was defined as the number of leukocytes moving at a velocity less than erythrocytes. Leukocyte rolling velocity was measured by the average time required for leukocytes to roll over a defined length of the venule at each time point. Adherent leukocytes were defined as cells that remained stationary for at least 30 s. Rolling leukocyte flux, adhering flux were quantified by a blinded investigator.

[3] = tested on: peritoneal macrophages; assay: Apoptosis and necrosis of thioglycollate-recruited peritoneal macrophages in vivo (annexin V, propidium iodide); details: intraperitoneal injection, after 4 hours
Method: (§1) (FIG. 6A, FIG. 6B) Macrophages recruited to the peritoneal cavity by thioglycollate where challenged by intraperitoneal injections of either cM7, scM7 or the blocking anti-Mac-1 antibody M1/70. […] (FIG. 4C, FIG. 4D) In vitro cultivated human umbilical vein endothelial cells (HUVECs) were incubated with cM7, scM7 or a combination of CD40L or a blocking anti-CD40 antibody. […] Data are presented as mean±SEM of at least 3 independent experiments.

[4] = tested on: human umbilical vein endothelial cells (HUVECs); assay: Cytotoxicity and apoptosis in cultivated HUVECs (caspase 3/7 activity, LDH release); assay type: cell-based
Method: as §1

[5] = tested on: C57BL/6J mice; assay: In vivo thrombosis model (ferrichloride injury of mesenteric arteriole)
Method: (§2) Potential side effects were checked in an in vivo thrombosis model. 3-4 weeks old C57BL/6J mice received an intraperitoneal injection of either sterile saline (100 μl), the peptides cM7, scM7, or the indicated antibodies. A mesenteric arteriole was chosen and injured with ferrichloride. Platelets were stained by retroorbital injection of rhodamine […] and visualized through an intravital microscope (AxioScope Vario, Carl Zeiss). Vessel occlusion time and thrombus embolization rate was analyzed. Tail bleeding time was determined as previously reported (Andre et al., Loc. Cit.).

[6] = tested on: C57BL/6J mice; assay: Tail bleeding time; details: mouse, in vivo
Method: as §2

[7] = molecular target: T1, CD40L binding to Mac-1 I-domain (Homo sapiens, UniProt P29965); assay: Solid phase binding assay: blocking of CD40L binding to immobilized Mac-1 I-domain by peptides; details: peptides 50 μM
T1 construct: inserting the coding DNA for amino acids E^108 to L^261 in pHOG-21; His (N); trimerization domain (N); made in house
T1 sequence (P29965 108-261): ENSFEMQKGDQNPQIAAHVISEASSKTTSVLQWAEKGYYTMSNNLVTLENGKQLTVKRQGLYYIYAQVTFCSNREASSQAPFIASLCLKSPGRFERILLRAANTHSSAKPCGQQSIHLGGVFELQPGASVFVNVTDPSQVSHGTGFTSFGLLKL
Method: Solid phase binding assay. Recombinant CD40L was incubated with immobilized Mac-1 I-domain in the presence or absence of blocking peptides. Binding of sCD40L was detected by addition of anti-cmyc-HRP (Invitrogen), TMB-substrate (Pierce), and colorimetric reaction. Alternatively, CD40L (Provitro) was immobilized, and binding of the recombinant Mac-1 I-domain was quantified by addition of anti-His-Biotin (Qiagen), and HRP-coupled streptavidin (Pierce). For the binding to immobilized peptides, CD40L was biotinylated with the Micro Biotinylation Kit (Sigma). A mixture of equal molarities of all peptides served as the positive control in this assay.
The recombinant Mac-1 I-domain was immobilized in 96-well plates (Nunc) in PBS at 4° C. overnight. After blocking in 2% BSA/PBS and subsequent washing with PBS, recombinant CD40L was added to the wells in the indicated concentrations and incubated for 2 hours at 37° C. Effect of the peptides M1-M8 was assessed by incubating CD40L (10 μg/ml) in the presence of peptides (50 μM). After removing of unbound CD40L by washing with 0.1% Tween-20/PBS, anti-c-myc-HRP (Invitrogen) was added and incubated for 2 hours at room temperature. Binding was quantified by addition of TMB-substrate (Pierce), colorimetric reaction at 450 nm. Alternatively, CD40L without a His-tag (Provitro) was immobilized and blocked as described above. Binding of the recombinant Mac-1 I-domain was quantified by addition of anti-His-Biotin monoclonal antibody (Qiagen), HRP-coupled streptavidin (Pierce) and colorimetric reaction at 450 nm. For the specific binding of the Mac-1 I-domain BSA-coated wells were subtracted from the CD40L-coated. Kd was estimated using a one-site binding hyperbola nonlinear regression model with the Software Prism (Graphpad). For quantification of the binding of CD40L to peptides, peptides were immobilized in 96-well plates overnight at 4° C. in 50 mM sodium carbonate, pH 10.6. CD40L was biotinylated using the Micro-Biotinylation-Kit (Sigma) following the manufacturer's instructions and detected by HRP-coupled streptavidin (Pierce) and colorimetric reaction. A mixture of equal molarities of all peptides served as positive control. Absorbance on BSA-coated wells served as negative control and was subtracted.

[8] = tested on: CD40L-transfected murine fibroblasts; assay: Flow cytometry: binding of FITC-cM7 to CD40L- or mock-transfected murine fibroblasts; assay type: cell-based
Method: Flow cytometric analysis, platelet activation assays, and quantification of leukocyte-platelet aggregates, were performed as previously described (Zirlik et al., 2007). Binding of cM7 to CD40L-expressing murine fibroblasts was determined by quantification of FITC-coupled cM7. Binding of CD40L to Mac-1 expressing CHO-cells or human leukocytes was performed by incubation with CD40L (10 μg/ml) and subsequent detection with anti-PentaHis antibody (Qiagen).
Flow cytometric analyses, as well as platelet activation assays and quantification of leukocyte-platelet aggregates were performed as previously described (Quezada et al., Ann. Rev. Immunol. (2004), pp 307-328). Briefly, murine blood samples were taken by intracardiac puncture. Red cells were lyzed in 155 mM NH4Cl, 5.7 mM K2HPO4, 0.1 mM EDTA, pH 7.3. […] Antibodies for epitope specific fluorescence-activated cell sorting (FACS Calibur, BD) included anti-CD11b, anti-CD115, anti-Gr-1, anti-CD4, anti-CD8, anti-CD20, anti-CD41, anti-CD62P, anti-CD54, anti-CD102, and anti-CD106 (all from Ebioscience). Binding of cM7 to CD40L- or mock-transfected murine fibroblasts was determined by incubation of FITC-cM7 at the indicated concentrations with cells for 30 min at 37° C. and subsequent quantification of the fluorescence in the FL-1 channel. […]

Q: For `CC(C)C[C@@H]1NC(=O)[C@H](CCC(N)=O)NC(=O)[C@H](CCC(=O)O)NC(=O)[C@@H](N)CSSC[C@@H](C(=O)O)NC(=O)[C@H](CC(C)C)NC(=O)[C@H]([C@@H](C)O)NC(=O)[C@H](CCCCN)NC(=O)[C@H](CO)NC(=O)[C@H](CCCCN)NC(=O)[C@H](CCCCN)NC1=O` [cM7] (H-CEQLKKSKTLC-OH; disulfide 1-11 (inferred); N-terminus and C-terminus assumed), which Leukocytes ([1]; AF) is on record?
A: 4.54 ± 1.28 ×1000/μl

Q: And the Platelets ([1]; AF)?
A: 486 ± 198 ×1000/μl

Q: What about the Weight ([1]; AF: after feeding) of the same compound?
A: 35.7 ± 3.8 g

Q: What about the Leukocytes ([1]; BF) of the same compound?
A: 11.2 ± 3.1 ×1000/μl

Q: What about the Platelets ([1]; BF) of the same compound?
A: 529 ± 53 ×1000/μl

Q: And the Weight ([1]; BF: before feeding)?
A: 23.4 ± 2.3 g

Q: What about the “immunologic characteristics (T cells, B cells, cytokines)” value ([1]; long-term treatment) of the same compound?
A: Any changes in immunologic characteristics were not observed

Q: And the Heart rate [2]?
A: 628 ± 63 bpm

Q: And the Leukocytes [2]?
A: 11.9 ± 2.3 ×1000/μl

Q: And the Platelets [2]?
A: 552 ± 174 ×1000/μl

Q: And the Systolic blood pressure [2]?
A: 97.6 ± 6.5 mmHg

Q: What about the “apoptotic or necrotic cells in vivo (annexin V binding, propidium iodide loading)” value [3] of the same compound?
A: did not cause an increase of apoptotic or necrotic cells in vivo

Q: What about the “apoptosis of endothelial cells, LDH-release” value ([4]; CD40L primed HUVECs) of the same compound?
A: slightly increased in CD40L primed HUVECs

Q: And the “cellular cytotoxicity, caspase 3/7-activity” value ([4]; HUVECs, 24 hours)?
A: did not induce cellular cytotoxicity

Q: And the “effect on vessel occlusion time” value ([5]; model of arterial thrombosis)?
A: did not prolong vessel occlusion time

Q: What about the “effect on thromboembolization rate” value ([5]; mouse, in vivo) of the same compound?
A: only caused a slight increase in thromboembolization rate

Q: What about the “effect on bleeding time” value [6] of the same compound?
A: did not affect bleeding time

Q: Which “blocking of CD40L / Mac-1 I-domain binding” value [7] does the source give for “FQVNNFEALKT (therapeutically active peptide) [Peptide M5]” here?
A: emerged as potential candidate inhibitors

Q: Which “blocking of CD40L / Mac-1 I-domain binding” value [7] does the source give for “DAFRSEKSRQELNTI (therapeutically active peptide) [Peptide M4]” here?
A: emerged as potential candidate inhibitors

Q: How did the “binding to murine fibroblasts over-expressing CD40L” value [8] turn out when “C-EQLKKSKTL-C (CEQLKKSKTLC; bridge N-C; also: cyclised through the flanking Cys, bond type not given here) [FITC-labeled cM7]” was run?
A: concentration-dependently bound to murine fibroblasts over-expressing CD40L

Q: And the “binding to mock-transfected fibroblasts” value ([8]; control cells)?
A: but not to respective mock-transfected control cells

Q: With “KFGDPLGYEDVIPEADR (therapeutically active peptide) [Peptide M3]” as the compound, how does the “blocking of CD40L / Mac-1 I-domain binding” value [7] read?
A: emerged as potential candidate inhibitors
